From the NIST ThermoML archive (doi:10.1016/j.jct.2007.11.011)

Experiment: xn = mol fraction of the nth substance listed
Conditions: Liquid

CCOS(=O)(=O)[O-].CCn1cc[n+](C)c1 [1-ethyl-3-methylimidazolium ethyl sulfate] + CO
mass density [kg/m3]
Conditions	100 kPa	2500 kPa	5000 kPa	10000 kPa	15000 kPa	20000 kPa	25000 kPa	30000 kPa	35000 kPa
303.15 K, x1 = 0.04781	–	–	–	–	–	892.79	896.28	899.65	902.86
303.15 K, x1 = 0.1026	–	–	–	–	–	965.4	968.54	971.57	974.42
303.15 K, x1 = 0.1977	–	–	–	–	–	1047.97	1050.68	1053.34	1055.86
303.15 K, x1 = 0.2432	–	–	–	–	–	1076.28	1078.9	1081.44	1083.87
303.15 K, x1 = 0.3026	–	–	–	–	–	1106.82	1109.29	1111.72	1114.04
303.15 K, x1 = 0.3887	–	–	–	–	1137.67	1140.05	1142.39	1144.7	1146.89
303.15 K, x1 = 0.485	–	–	–	–	1165.38	1167.67	1169.9	1172.11	1174.2
303.15 K, x1 = 0.589	–	–	–	–	1187.91	1190.1	1192.25	1194.38	1196.4
303.15 K, x1 = 0.7289	–	–	–	–	1210.81	1212.92	1214.99	1217.04	1219
303.15 K, x1 = 0.8521	–	–	–	–	1225.51	1227.56	1229.58	1231.59	1233.49
303.15 K, x1 = 0.9397	–	–	–	–	1234.67	1236.7	1238.71	1240.68	1242.56
313.15 K, x1 = 0.04781	868.71	870.87	873	877.12	881.03	884.83	888.46	891.58	896.52
313.15 K, x1 = 0.1026	943.67	945.44	947.28	950.87	954.31	957.65	960.89	964.01	967.07
313.15 K, x1 = 0.1977	1028.79	1030.21	1031.77	1034.78	1037.72	1040.6	1043.41	1046.12	1048.8
313.15 K, x1 = 0.2432	1057.64	1059.08	1060.59	1063.49	1066.28	1069.03	1071.73	1074.34	1076.92
313.15 K, x1 = 0.3026	1088.94	1090.22	1091.62	1094.33	1097	1099.6	1102.15	1104.62	1107.08
313.15 K, x1 = 0.3887	1122.96	1124.22	1125.52	1128.06	1130.57	1133.05	1135.46	1137.8	1140.13
313.15 K, x1 = 0.485	1151.19	1152.35	1153.6	1156.03	1158.42	1160.76	1163.07	1165.3	1167.55
313.15 K, x1 = 0.589	1174.15	1175.21	1176.41	1178.75	1181.04	1183.3	1185.51	1187.68	1189.83
313.15 K, x1 = 0.7289	1197.48	1198.52	1199.65	1201.89	1204.09	1206.26	1208.39	1210.48	1212.56
313.15 K, x1 = 0.8521	1212.41	1213.23	1214.31	1216.48	1218.62	1220.72	1222.81	1224.83	1226.88
313.15 K, x1 = 0.9397	1221.68	1222.7	1223.82	1225.96	1228.06	1230.16	1232.21	1234.23	1236.23
323.15 K, x1 = 0.04781	859.88	862.14	864.43	868.74	872.87	876.82	880.61	884.24	887.77
323.15 K, x1 = 0.1026	935.3	937.17	939.08	942.8	946.41	949.87	953.21	956.44	959.59
323.15 K, x1 = 0.1977	1020.88	1022.39	1024.01	1027.14	1030.2	1033.16	1036.04	1038.84	1041.58
323.15 K, x1 = 0.2432	1049.97	1051.46	1052.99	1055.97	1058.89	1061.72	1064.46	1067.16	1069.79
323.15 K, x1 = 0.3026	1081.45	1082.65	1084.11	1086.92	1089.69	1092.38	1094.99	1097.52	1100.04
323.15 K, x1 = 0.3887	1115.61	1116.83	1118.22	1120.88	1123.48	1126.02	1128.5	1130.9	1133.28
323.15 K, x1 = 0.485	1143.95	1145.15	1146.43	1148.93	1151.4	1153.83	1156.17	1158.47	1160.75
323.15 K, x1 = 0.589	1167	1168.12	1169.35	1171.75	1174.11	1176.44	1178.7	1180.91	1183.11
323.15 K, x1 = 0.7289	1190.46	1191.53	1192.7	1194.99	1197.27	1199.49	1201.68	1203.82	1205.91
323.15 K, x1 = 0.8521	1205.38	1206.3	1207.44	1209.67	1211.88	1214.04	1216.15	1218.23	1220.28
323.15 K, x1 = 0.9397	1214.87	1215.9	1217.06	1219.28	1221.46	1223.61	1225.7	1227.76	1229.79
333.15 K, x1 = 0.04781	850.98	853.34	855.7	860.18	864.49	868.61	872.54	876.32	879.95
333.15 K, x1 = 0.1026	926.85	928.81	930.83	934.71	938.46	942.07	945.55	948.89	952.14
333.15 K, x1 = 0.1977	1012.95	1014.54	1016.23	1019.48	1022.66	1025.73	1028.71	1031.6	1034.42
333.15 K, x1 = 0.2432	1042.28	1043.81	1045.4	1048.48	1051.51	1054.43	1057.29	1060.06	1062.76
333.15 K, x1 = 0.3026	1073.72	1075.11	1076.58	1079.47	1082.32	1085.07	1087.76	1090.37	1092.96
333.15 K, x1 = 0.3887	1108.15	1109.48	1110.88	1113.59	1116.27	1118.87	1121.41	1123.9	1126.35
333.15 K, x1 = 0.485	1136.7	1137.95	1139.28	1141.86	1144.4	1146.86	1149.29	1151.66	1153.97
333.15 K, x1 = 0.589	1159.94	1161.11	1162.35	1164.82	1167.24	1169.62	1171.94	1174.22	1176.46
333.15 K, x1 = 0.7289	1183.49	1184.59	1185.79	1188.13	1190.47	1192.77	1194.98	1197.18	1199.35
333.15 K, x1 = 0.8521	1198.51	1199.19	1200.35	1202.62	1204.87	1207.1	1209.26	1211.4	1213.49
333.15 K, x1 = 0.9397	1207.93	1209.04	1210.2	1212.45	1214.69	1216.87	1219.03	1221.13	1223.21
